Measurements taken from patent publication US9522888B2, “Substituted bicyclic compounds” (BRISTOL-MYERS SQUIBB COMPANY, priority 2014, dated 2016).

Experiments:
[1] = biological target: S1P1 (membranes prepared from S1P1/CHO cells) (Homo sapiens (Human), UniProt P21453); test: Receptor [35S] GTPγS binding assay (S1P1 GTPγS); assay type: biochemical; conditions: phosphate examples; read-out: S1P1 GTPγS
Method in brief: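 Membranes from S1P1-expressing CHO cells (3 μg protein/well) incubated with compound (11-point, 3-fold dilution) and 0.2 nM final [35S]GTPγS, 45 min at room temperature. Assay buffer: 20 mM HEPES pH 7.5, 10 mM MgCl2, 150 mM NaCl, 10 μM GDP, 0.1% fatty-acid-free BSA, 10 μg/ml saponin. Filter-bound radioactivity counted by scintillation; EC50 derived.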

[2] = biological target: S1P3 (membranes prepared from EDG3-Gal5-bla HEK293T cells) (Homo sapiens (Human), UniProt Q99500); test: Receptor [35S] GTPγS binding assay (S1P3 GTPγS); assay type: biochemical; conditions: phosphate examples; read-out: S1P3 GTPγS
Method in brief: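 Membranes (3 μg protein/well) from S1P1/CHO cells or EDG3-Gal5-bla HEK293T cells (S1P3) were incubated 45 min at room temperature with 0.2 nM final [35S]GTPγS in HEPES pH 7.5 buffer with 10 μM GDP, MgCl2 and saponin. Bound label counted after filtration; EC50 from 11-point, 3-fold dilutions.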

hS1P1/CHO cells = hS1P1/CHO cells (Homo sapiens (Human), UniProt P21453); test: hS1P1 ERK phosphorylation (S1P1 pERK); assay type: cell-based; conditions: phosphate examples
Method in brief: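 CHO cells expressing human S1P1, serum-starved 2 h, exposed to compound in HBSS/20 mM HEPES for 7 min at 37° C. Lysates assayed for phospho-ERK by SureFire kit; response given as % activation relative to 10 μM S1P.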

human S1P1 = human S1P1 (Homo sapiens (Human), UniProt P21453); test: S1P1 binding assay (33P-S1P radioligand competition, CHO cell membranes); conditions: phosphate examples; read-out: S1P1 Binding
Method in brief: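 Radioligand is 33P-S1P, competing for membranes from human S1P1-expressing CHO cells. Membranes resuspended in 50 mM HEPES pH 7.5, 100 mM NaCl, 1 mM MgCl2, 2 mM EDTA.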

S1P3 (membranes prepared from EDG3-Gal5-bla HEK293T cells), sequence (Q99500 whole entry): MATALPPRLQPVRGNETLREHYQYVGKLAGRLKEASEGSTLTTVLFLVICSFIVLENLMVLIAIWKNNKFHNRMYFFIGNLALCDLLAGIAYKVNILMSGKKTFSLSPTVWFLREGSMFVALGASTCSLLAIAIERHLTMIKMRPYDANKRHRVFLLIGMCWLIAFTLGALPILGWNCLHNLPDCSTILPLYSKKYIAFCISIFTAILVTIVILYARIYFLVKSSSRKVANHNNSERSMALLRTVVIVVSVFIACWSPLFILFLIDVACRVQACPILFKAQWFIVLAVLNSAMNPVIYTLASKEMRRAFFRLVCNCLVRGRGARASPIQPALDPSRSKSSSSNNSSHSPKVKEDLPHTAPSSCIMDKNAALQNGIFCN
human S1P1, sequence (P21453 whole entry): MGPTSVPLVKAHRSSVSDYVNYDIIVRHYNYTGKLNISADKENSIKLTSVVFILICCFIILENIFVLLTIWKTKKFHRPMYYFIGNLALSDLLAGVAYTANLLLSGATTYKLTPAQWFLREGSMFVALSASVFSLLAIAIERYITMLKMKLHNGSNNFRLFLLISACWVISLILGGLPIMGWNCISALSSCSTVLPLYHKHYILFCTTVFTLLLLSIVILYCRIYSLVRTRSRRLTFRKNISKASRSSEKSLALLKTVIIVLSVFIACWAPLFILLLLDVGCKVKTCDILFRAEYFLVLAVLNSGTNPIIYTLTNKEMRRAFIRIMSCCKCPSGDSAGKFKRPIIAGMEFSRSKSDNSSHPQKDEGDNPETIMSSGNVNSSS
S1P1 (membranes prepared from S1P1/CHO cells), sequence (P21453 whole entry): as above
hS1P1/CHO cells, sequence (P21453 whole entry): as above

EC50 [1] [nM]	EC50 [2] [nM]	EC50 (hS1P1/CHO cells) [nM]	IC50 (human S1P1) [nM]	SMILES
10 to 100	> 625	< 10	10 to 100	COCCCCC[C@H]1CCc2cc([C@@H]3CC[C@@](N)(COP(=O)(O)O)C3)ccc2C1 [compound 598]
100 to 1000	> 625	10 to 100	100 to 1000	COc1ccc(C[C@@H]2CCc3cc([C@H]4CC[C@](N)(COP(=O)(O)O)C4)ccc3C2)c(C)c1 [compound 546]
< 10	> 625	< 10	10 to 100	COc1ccc(C[C@H]2CCc3cc([C@H]4CC[C@](N)(COP(=O)(O)O)C4)ccc3C2)cc1 [compound 568]
< 10	> 625	< 10	10 to 100	CC(C)OCCC[C@H]1CCc2cc([C@@H]3CC[C@@](N)(COP(=O)(O)O)C3)ccc2C1 [compound 600]
< 10	> 625	< 10	< 10	COc1cc(CC[C@H]2CCc3cc([C@@H]4CC[C@@](N)(COP(=O)(O)O)C4)ccc3C2)ccc1F (single isomer, unassigned) [compound 608]
10 to 100	> 625	< 10	< 10	Cc1ccc(COC[C@@H]2CCc3cc([C@H]4CC[C@](N)(COP(=O)(O)O)C4)ccc3C2)cc1 [compound 474]
100 to 1000	> 625	< 10	100 to 1000	COc1ccc(C[C@@H]2CCc3cc([C@H]4CC[C@](N)(COP(=O)(O)O)C4)ccc3C2)cc1OC [compound 553]
10 to 100	> 625	10 to 100	100 to 1000	COc1ccc(F)c(OC[C@@H]2CCc3cc([C@H]4CC[C@](N)(COP(=O)(O)O)C4)ccc3C2)c1 [compound 484]
< 10	> 625	< 10	10 to 100	N[C@]1(COP(=O)(O)O)CC[C@H](c2ccc3c(c2)CC[C@@H](COc2cccc(OC(F)(F)F)c2)C3)C1 [compound 497]
100 to 1000	> 625	< 10	10 to 100	CCCCOC[C@@H]1CCc2cc([C@H]3CC[C@](N)(COP(=O)(O)O)C3)ccc2C1 [compound 447]
< 10	> 625	< 10	< 10	CC(C)SCC[C@@H]1CCc2cc([C@H]3CC[C@](N)(COP(=O)(O)O)C3)ccc2C1 [compound 537]
10 to 100	> 625	< 10	< 10	COCCCOC[C@@H]1CCc2cc([C@H]3CC[C@](N)(COP(=O)(O)O)C3)ccc2C1 [compound 458]
10 to 100	> 625	10 to 100	10 to 100	Cc1ccc(OC[C@@H]2CCc3cc([C@H]4CC[C@](N)(COP(=O)(O)O)C4)ccc3C2)cc1 [compound 467]
100 to 1000	> 625	10 to 100	10 to 100	N[C@]1(COP(=O)(O)O)CC[C@@H](c2ccc3c(c2)CC[C@@H](CSc2ccccc2)C3)C1 [compound 508]
100 to 1000	> 625	10 to 100	100 to 1000	CN(C)C(=O)Cc1ccc(C[C@@H]2CCc3cc([C@H]4CC[C@](N)(COP(=O)(O)O)C4)ccc3C2)cc1 [compound 562]
100 to 1000	> 625	< 10	100 to 1000	CCOc1ccc(C[C@@H]2CCc3cc([C@H]4CC[C@](N)(COP(=O)(O)O)C4)ccc3C2)cc1 [compound 549]
10 to 100	> 625	10 to 100	100 to 1000	COc1ccccc1/C=C/[C@@H]1CCc2cc([C@H]3CC[C@](N)(COP(=O)(O)O)C3)ccc2C1 [compound 641]
10 to 100	> 625	10 to 100	100 to 1000	CC(C)c1ccc(OC[C@@H]2CCc3cc([C@H]4CC[C@](N)(COP(=O)(O)O)C4)ccc3C2)cc1 [compound 479]
10 to 100	> 625	10 to 100	10 to 100	COc1cc(OC[C@@H]2CCc3cc([C@H]4CC[C@](N)(COP(=O)(O)O)C4)ccc3C2)ccc1F [compound 485]
< 10	> 625	10 to 100	< 10	COc1cc(OC[C@@H]2CCc3cc([C@H]4CC[C@](N)(COP(=O)(O)O)C4)ccc3C2)ccc1Cl [compound 493]
10 to 100	> 625	< 10	< 10	COc1ccc(SC[C@@H]2CCc3cc([C@H]4CC[C@](N)(COP(=O)(O)O)C4)ccc3C2)cc1 [compound 529]
< 10	> 625	< 10	< 10	COc1ccccc1SC[C@@H]1CCc2cc([C@H]3CC[C@](N)(COP(=O)(O)O)C3)ccc2C1 [compound 527]
< 10	> 625	10 to 100	< 10	COc1cccc(C[C@H]2CCc3cc([C@H]4CC[C@](N)(COP(=O)(O)O)C4)ccc3C2)c1 [compound 567]

Second part, the compound before the results:

SMILES	EC50 [1] [nM]	EC50 [2] [nM]	EC50 (hS1P1/CHO cells) [nM]	IC50 (human S1P1) [nM]
N[C@]1(COP(=O)(O)O)CC[C@H](c2ccc3c(c2)CC[C@@H](CCCC2CCOCC2)C3)C1 [compound 557]	10 to 100	> 625	10 to 100	10 to 100
CCCCCCC1CCc2cc([C@@H]3CC[C@](N)(COP(=O)(O)O)C3)ccc2O1 (some centres unmarked) [compound 420]	10 to 100	> 625	1000 to 10000	10 to 100
CN(C)CCCCC[C@@H]1CCc2cc([C@H]3CC[C@](N)(COP(=O)(O)O)C3)ccc2C1 [compound 561]	100 to 1000	> 625	10 to 100	100 to 1000
CCCCOCCO[C@H]1CCc2cc([C@@H]3CC[C@@](N)(COP(=O)(O)O)C3)ccc2C1 [compound 591]	10 to 100	> 625	< 10	10 to 100
CC(C)CCSC[C@@H]1CCc2cc([C@H]3CC[C@](N)(COP(=O)(O)O)C3)ccc2C1 [compound 510]	10 to 100	> 625	< 10	< 10
CC(C)CCOCCO[C@H]1CCc2cc([C@H]3CC[C@](N)(COP(=O)(O)O)C3)ccc2C1 [compound 587]	10 to 100	> 625	< 10	< 10
C/C=C/CCCC[C@H]1CCc2cc([C@H]3CC[C@](N)(COP(=O)(O)O)C3)ccc2C1 [compound 659]	< 10	> 625	10 to 100	< 10
CC(C)(C)CCSC[C@@H]1CCc2cc([C@H]3CC[C@](N)(COP(=O)(O)O)C3)ccc2C1 [compound 519]	< 10	> 625	< 10	< 10
CCCSCC[C@H]1CCc2cc([C@H]3CC[C@](N)(COP(=O)(O)O)C3)ccc2C1 [compound 534]	< 10	> 625	10 to 100	< 10
CCCCSC[C@@H]1CCc2cc([C@@H]3CC[C@](N)(COP(=O)(O)O)C3)ccc2C1 [compound 506]	< 10	> 625	< 10	< 10
CCCCC(C)(C)C(=O)OC1CCc2cc([C@H]3CC[C@@](N)(COP(=O)(O)O)C3)ccc2C1 (some centres unmarked) [compound 624]	< 10	> 625	100 to 1000	1000 to 10000
C#CCCOCCO[C@H]1CCc2cc([C@@H]3CC[C@@](N)(COP(=O)(O)O)C3)ccc2C1 [compound 586]	10 to 100	> 625	< 10	< 10
N[C@]1(COP(=O)(O)O)CC[C@H](c2ccc3c(c2)CC[C@H](CSCCc2cnccn2)C3)C1 [compound 526]	10 to 100	> 625	< 10	10 to 100
CCCCCC(=O)NC1CCc2cc([C@H]3CC[C@@](N)(COP(=O)(O)O)C3)ccc2C1 (some centres unmarked) [compound 629]	100 to 1000	> 625	< 10	100 to 1000
CCCCCSC[C@H]1CCc2cc([C@H]3CC[C@](N)(COP(=O)(O)O)C3)ccc2C1 [compound 512]	< 10	> 625	10 to 100	< 10
CCCCCO[C@@H]1CCc2cc([C@@H]3CC[C@](N)(COP(=O)(O)O)C3)ccc2C1 [compound 433]	100 to 1000	> 625	< 10	10 to 100
CCCCOCCO[C@@H]1CCc2cc([C@@H]3CC[C@@](N)(COP(=O)(O)O)C3)ccc2C1 [compound 592]	10 to 100	> 625	< 10	< 10
CCCC/C=C/[C@@H]1CCc2cc([C@H]3CC[C@](N)(COP(=O)(O)O)C3)ccc2C1 [compound 637]	10 to 100	> 625	10 to 100	< 10
